Assay results from US20190389830A1, “NRF2 ACTIVATOR” (BIOGEN MA INC., priority 2017, published 2019).

What was measured:
Type in all cases: cell-based
human astrocytes [1] = test: Cytoprotection of astrocytes against sodium arsenite; conditions: compound 20 hrs before 25 μM sodium arsenite, further 22 hrs (FIG. 3)
Description: (§1) Human astrocytes from ScienCell (cat #1820) were grown in astrocyte medium per supplier's instructions. Cells cultured for no more than two passages were plated in 96-well plates at 40,000 cells per well for gene transcription experiments and 20,000 cell per well for glutathione and cytoprotection assays.
Astrocytes were treated for 20 hrs as above, then the medium was removed and replaced with serum- and supplement-free growth medium with and without 25 μM sodium arsenite. After 22 hrs., cells were washed with PBS, fixed with 4% paraformaldehyde/4% sucrose in PBS, stained with 4′,6-Diamidino-2-phenylindole dihydrochloride (DAPI) and counted by quantitative fluorescence microscopy.

human astrocytes [2] = test: Glutathione assay (GSH-Glo) in human astrocytes; conditions: 20-hr exposure (FIG. 2)
Description: as §1
Intracellular glutathione was measured after a 20-hr exposure to test compound 3-Ent1 by a two-step process. First, cells were lysed and luciferin quantitatively generated from substrate, catalyzed by glutathione-S-transferase in the presence of analyte glutathione. Then luciferin was assayed using stabilized luciferase to produce a luminescent signal proportional to the concentration of glutathione (Promega GSH-Glo, cat #V6912).

Nrf2 target genes = test: Gene expression (RT-PCR) in cultured human astrocytes; conditions: 20 hours, increasing concentrations
Description: as §1
Primary cultures of human spinal cord astrocytes were treated with compound 3-Ent1 for 20 hours. The cells were then rinsed in PBS, lysed, and processed for RNA using Ambion Taqman™ Cells-to-CT kit. The resulting cDNA was stored at −20° C. until analysis by real-time polymerase chain reaction (RT-PCR). The cDNA mixture from Cells-to-CT was diluted 5x before loading into PCR. This yields results similar to using 6 ng of purified cDNA. RT-PCR was performed on Life Technologies QuantStudio platform using OpenArray technique according to manufacturer's protocol using the following Taqman primers: […]
The comparative CT method was used to calculate fold changes using ThermoFisher Cloud software for PCR analysis. Samples were compared to vehicle control.

Question: `CC1CCC2(C)C=C(C#N)C(=O)C(C)(C)C2O1` (single isomer, unassigned; ent1) [Compound 3-Ent1] was tested. Which “protection from oxidative stress-induced cell death” value (human astrocytes [1]) did it give?
Answer: protects cells

Question: And the intracellular glutathione (human astrocytes [2])?
Answer: increases

Question: What about the “transcription of GCLC” value (Nrf2 target genes; compared to vehicle control (FIG. 1A)) of the same compound?
Answer: induces transcription

Question: And the “transcription of HMOX1” value (Nrf2 target genes; compared to vehicle control (FIG. 1B))?
Answer: induces transcription

Question: What about the “transcription of OSGIN1” value (Nrf2 target genes; compared to vehicle control (FIG. 1C)) of the same compound?
Answer: induces transcription

Question: What about the “transcription of NQO1” value (Nrf2 target genes; compared to vehicle control (FIG. 1D)) of the same compound?
Answer: induces transcription
